Results on one compound are retold here after patent publication US7605142B2, “Expression of cyclin G1 in tumors” (University of Southern California, priority 1995, dated 2009).

The experiment deals with MG-63 cells. The experiment is described as follows: Ganciclovir cytotoxicity/bystander effects in HStk vector transduced MG-63 cells. Format: cell-based, human. The note with it: GCV 20 μg/ml, 10 days. How it is done: Initial dose-response studies determined the sensitivity of MG-63 cells and the optimal concentrations of G418 used to select transduced cells. Upon G418 selection, varying proportions of HStk-transduced and non-transduced MG-63 cells (plating density 2.5×10^4 cells) were exposed to 20 μg GCV/ml D10 in each of six-well plates, for 10 days. […] Bystander effects of GCV treatment were compared to those in HStk-transduced NIH 3T3 cells (ATCC No. CRL 1658).

Consider `Nc1nc(O)c2ncn(COC(CO)CO)c2n1` [GCV, ganciclovir], for which the degree of confluency is, setting by setting: (10% HStk+/90% HStk− MG-63 cells) 15%; (30% HStk+/70% HStk− MG-63 cells) 15%; (50% HStk+/50% HStk− MG-63 cells) 10%; (100% HStk− (non-transduced) MG-63 cells) 75%; (greater than 50% HStk+ MG-63 cells) below 10%.
